For data set [1], the system named is Human immunodeficiency virus 2. Briefly: Antiviral activity against HIV-2 ROD infected in human MT-4 cells assessed as reduction in virus-induced cytopathic effect incubated for 5 days by spectrophotometric based MTT assay. The note with it: Human immunodeficiency virus 2, ROD, MT4, 120 h. In kind it is functional, organism-based. In general terms: Cytopathic effects are the visible damage that an infection or toxin causes in cultured cells.

For data set [2], the system named is Mycobacterium tuberculosis. Briefly: Antimycobacterial activity against Mycobacterium tuberculosis H37Rv assessed as inhibition of bacterial growth incubated for 24 hrs by alamar blue assay. In kind it is functional. Background: Alamar Blue is a resazurin reagent that responds to reducing activity.
Data set [3] concerns Escherichia coli. The data set can be described thus: Antibacterial activity against Escherichia coli. In kind it is functional.
Data set [4] deals with Pseudomonas aeruginosa. Briefly: Antibacterial activity against Pseudomonas aeruginosa. In kind it is functional.
Data set [5] has as its system Staphylococcus aureus. The data set can be described thus: Antibacterial activity against Staphylococcus aureus. In kind it is functional.
Data set [6] concerns Rhizoctonia solani. The data set can be described thus: Antifungal activity against Rhizoctonia solani assessed as inhibition of fungal growth at 1 microg/ml relative to control. In kind it is functional.
Data set [7] has as its system Aedes aegypti. Briefly: […] activity against Aedes aegypti assessed as protection time at 0.5 microg/cm. In kind it is functional.
The subject of data set [8] is MCF7. The data set can be described thus: Cytotoxicity against human MCF7 cells assessed as reduction in cell viability by XTT assay. In kind it is functional, cell-based. Background: Tetrazolium assays rely on reduction of a dye to a coloured formazan, in cell work by metabolically active cells.
The test system of data set [9] is HepG2. Briefly: Cytotoxicity against human HepG2 cells assessed as reduction in cell viability by XTT assay. In kind it is functional, cell-based.
In data set [10] the test system is Aspergillus niger. The data set can be described thus: Antifungal activity against Aspergillus niger ATCC 16888 assessed as reduction in fungal growth incubated for 24 hrs by broth micro-dilution method. In kind it is functional.
Data set [11] concerns Fusarium solani. The data set can be described thus: Antifungal activity against Fusarium solani ATCC 20327 assessed as reduction in fungal growth incubated for 24 hrs by CLSI micro-dilution method. In kind it is functional.
In data set [12] the test system is Penicillium chrysogenum. Briefly: Antifungal activity against Penicillium chrysogenum ATCC 11709 assessed as reduction in fungal growth incubated for 24 hrs by CLSI micro-dilution method. In kind it is functional.
For data set [13], the system named is Bacillus sp. The data set can be described thus: Antibacterial activity against Bacillus sp. ATCC 19986 assessed as reduction in bacterial growth incubated for 24 hrs by CLSI micro-dilution method. In kind it is functional. The note with it: Bacillus sp. (in: firmicutes).
Data set [14] has as its system Pseudomonas aeruginosa. Briefly: Antibacterial activity against Pseudomonas aeruginosa ATCC 27853 assessed as reduction in bacterial growth incubated for 24 hrs by CLSI micro-dilution method. In kind it is functional.
Data set [15] relates to Staphylococcus aureus. Briefly: Antibacterial activity against Staphylococcus aureus ATCC 25923 assessed as reduction in cell growth incubated for 18 hrs by two-fold serial dilution method. In kind it is functional.
Data set [16] concerns Acinetobacter baumannii. The data set can be described thus: Antibacterial activity against Acinetobacter baumannii ATCC 19606 assessed as reduction in cell growth incubated for 18 hrs by two-fold serial dilution method. In kind it is functional.
Data set [17] concerns Pseudomonas aeruginosa. Briefly: Antibacterial activity against Pseudomonas aeruginosa ATCC 27853 assessed as reduction in cell growth incubated for 18 hrs by two-fold serial dilution method. In kind it is functional.
Data set [18] has as its system Escherichia coli. Briefly: Antibacterial activity against Escherichia coli ATCC 25922 assessed as reduction in cell growth incubated for 18 hrs by two-fold serial dilution method. In kind it is functional.
Data set [19] has as its system BJAB. The data set can be described thus: Cytotoxicity against human BJAB cells assessed as lethal dose measured after 48 hrs. As to conditions: read-out: LD50 (the source's name). In kind it is functional.
Data set [20] concerns HCT-116. The data set can be described thus: Antiproliferative activity against human HCT-116 cells assessed as reduction in cell viability incubated for 72 hrs by MTT assay. As to conditions: HCT-116, 72 h. In kind it is functional, cell-based.
Data set [21] relates to Escherichia coli. The data set can be described thus: Antibacterial activity against Escherichia coli assessed as reduction in bacterial growth incubated for 12 hrs by broth micr-dilution method. In kind it is functional.
Data set [22] has as its system Bacillus subtilis. The data set can be described thus: Antibacterial activity against Bacillus subtilis assessed as reduction in bacterial growth incubated for 12 hrs by broth micr-dilution method. In kind it is functional.
Data set [23] has as its system Staphylococcus aureus. Briefly: Antibacterial activity against Staphylococcus aureus assessed as reduction in bacterial growth incubated for 12 hrs by broth micr-dilution method. In kind it is functional.
Data set [24] deals with Vibrio cholerae. Briefly: Antibacterial activity against Vibrio cholerae assessed as inhibition of bacterial growth. In kind it is functional.
The target in data set [25] is Sigma non-opioid intracellular receptor 1 (Cavia porcellus, UniProt Q60492). Briefly: Binding affinity to guinea pig sigma 1 receptor assessed as inhibition constant.
For data set [26], the system named is HT-1080. The data set can be described thus: Cytotoxicity against human HT-1080 cells assessed as reduction in cell growth by measuring lethal concentration for 72 hrs by MTT assay. In kind it is functional.
Data set [27] concerns MG-22A. Briefly: Cytotoxicity against mouse MG-22A cells assessed as reduction in cell growth by measuring lethal concentration for 72 hrs by MTT assay. In kind it is functional.
Data set [28] has as its system NIH3T3. Briefly: Cytotoxicity against mouse NIH3T3 cells assessed as reduction in cell growth by measuring lethal concentration for 72 hrs by MTT assay. In kind it is toxicity, cell-based. As to conditions: nih3t3, 72 h.

In brackets after ≈: the same amount, converted by molar mass. Where only a bound is given, the exact number is not on record here.

Chain of Sigma non-opioid intracellular receptor 1 (Q60492 whole entry): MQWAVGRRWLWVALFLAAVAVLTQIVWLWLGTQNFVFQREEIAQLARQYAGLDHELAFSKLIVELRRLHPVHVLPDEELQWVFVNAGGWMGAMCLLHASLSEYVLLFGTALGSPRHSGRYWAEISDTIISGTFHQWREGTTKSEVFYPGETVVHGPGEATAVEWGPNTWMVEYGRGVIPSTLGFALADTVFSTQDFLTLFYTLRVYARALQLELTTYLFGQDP

As usually defined, the EC50 is the midpoint of the concentration-response curve. Consider `Cc1cn([C@@H]2O[C@H](CO[Si](C)(C)C(C)(C)C)[C@@]3(OS(=O)(=O)C=C3N)[C@H]2O[Si](C)(C)C(C)(C)C)c(=O)[nH]c1=O`, for which, in data set [1], the concentration giving a half-maximal response (EC50) came to 0.034 µg/mL (≈ 0.0576 µM).
With `Cc1cn([C@@H]2O[C@H](CO[Si](C)(C)C(C)(C)C)[C@@]3(OS(=O)(=O)C=C3N)[C@H]2O)c(=O)[nH]c1=O`, the concentration giving a half-maximal response (EC50) in data set [1] was over 100 µg/mL.
For orientation: MIC means the smallest concentration in the dilution series that meets the test's criterion for growth inhibition. For `Cc1c(CN2CCN(C)CC2)cc(-c2ccc(Cl)cc2)n1-c1ccc(Cl)cc1`, in data set [2], the MIC was 1.7 µM.
As to `CC(=O)Nc1ccn([C@@H]2O[C@H](CO[Si](C)(C)C(C)(C)C)[C@@]3(OS(=O)(=O)C=C3N)[C@H]2O[Si](C)(C)C(C)(C)C)c(=O)n1`, the 50% effective concentration (EC50) in data set [1] is 0.097 µg/mL (≈ 0.157 µM).
Turning to `C[Si]1(C)CCN(C(=O)/C=C/C=C/c2ccc3c(c2)OCO3)CC1`, the MIC in [2] came out at 50 µg/mL.
Turning to `COc1cc(/C=N/CCC[Si](OC)(OC)OC)ccc1OCc1cn(CCOc2ccccc2[N+](=O)[O-])nn1`, the MIC in [3] worked out at 15 µg/mL (≈ 26.8 µM); in [4] it was 15 µg/mL (≈ 26.8 µM); in data set [5] it was 1.87 µg/mL (≈ 3.34 µM).
As to `C[Si]1(C)CCN(C(=O)/C=C/c2ccc3c(c2)OCO3)CC1`, in [2], the MIC stood at 50 µg/mL.
For orientation: inhibition means the relative decrease from the control value, in per cent. For the molecule `Cn1cc(C(=O)C(C#N)c2cccc([Si](C)(C)C)c2)c(C(F)F)n1` (stereo not drawn), in data set [6], the inhibition at 1 µg/mL turned out to be 91.2%.
In the case of `Cn1cc(C(=O)C(C#N)c2ccc([Si](C)(C)C)cc2F)c(C(F)F)n1` (stereo not drawn), the inhibition at 1 µg/mL in [6] is 91.2%.
Turning to `C[Si]1(C)CCN(C(=O)C2=CCCCC2)CC1`, the Time in data set [7] is listed as 756 min.
As usually defined, the IC50 is the concentration that inhibits the measured activity by half. `NCCC[Si-]123OCC[N+]1(CCO2)CCO3` (stereo not drawn): the figures for the IC50 in data set [8] and in data set [9] were 65 µg/mL (≈ 280 µM) and 150 µg/mL (≈ 646 µM), respectively. In addition, the MIC in data set [10], in data set [11], in data set [12], in data set [13] and in data set [14] was 1.2 µg/mL (≈ 5.16 µM) in each case.
As for `O=C1c2ccccc2C(=O)N1CCC[Si-]123OCC[N+]1(CCO2)CCO3` (stereo not drawn), the MIC in data set [15], in [16], in data set [17] and in data set [18] was 0.2 µg/mL (≈ 0.552 µM) in each case.
Turning to `CC(C)C(C)(C)[Si](C)(C)OC[C@H]1C[C@@H](n2cc(Br)c(=O)[nH]c2=O)C=C1CO`, the CC50 in data set [19] was found to be 9000 nM.
Take `CC(C)(C)[Si](C)(C)OC1OC(=O)C(Br)=C1Br` (stereo not drawn): the IC50 in data set [20] turned out to be 1300 nM.
For orientation: MIC50 means an inhibitory concentration at the 50% level, which refers to growth in some studies and to a panel of isolates in others. `O=c1c(I)cn(Cc2cn(CCC[Si-]345OCC[N+]3(CCO4)CCO5)nn2)c(=O)n1Cc1cn(CCC[Si-]234OCC[N+]2(CCO3)CCO4)nn1` (stereo not drawn): the MIC50 in [21], in data set [22], in [23] and in [24] was 0.18 µg/mL (≈ 0.217 µM) in each case.
Usually Ki stands for the dissociation constant of the complex between target and ligand, obtained from inhibition or displacement. As to `CC(C)=CCN1CC[Si]2(CCCc3ccccc32)CC1`, the Ki in [25] came out at 300 nM.
Usually LC50 stands for the concentration that kills 50% of the test population. For the molecule `CCCCCCCCCOCCc1sc[n+](CCC[Si](C)(C)C)c1C.[I-]`, the LC50 in data set [26], in data set [27] and in [28] was 0.1 µg/mL in each case.
Regarding `O=c1c(Cl)cn(Cc2cn(CCC[Si-]345OCC[N+]3(CCO4)CCO5)nn2)c(=O)n1Cc1cn(CCC[Si-]234OCC[N+]2(CCO3)CCO4)nn1` (stereo not drawn), the MIC50 in [21], in [22], in data set [23] and in data set [24] was 0.18 µg/mL (≈ 0.243 µM) in each case.
As to `CCN(CC)c1ccc(/C=N/CCC[Si](OC)(OC)OC)c(OCc2cn(CCOc3ccccc3[N+](=O)[O-])nn2)c1`, the MIC amounted to 6.3 µg/mL (≈ 10.5 µM) in data set [3], 6.3 µg/mL (≈ 10.5 µM) in [4] and 0.195 µg/mL (≈ 0.325 µM) in data set [5].
On to `CC(C)(C)[Si](C)(C)OC[C@H]1O[C@@H](n2ccc(=O)[nH]c2=O)[C@H](O[Si](C)(C)C(C)(C)C)[C@]12OS(=O)(=O)C=C2N`, for which the EC50 in data set [1] was 0.114 µg/mL (≈ 0.198 µM).
Take `Cn1cc(C(=O)C(C#N)c2ccc([Si](C)(C)C)cc2)c(C(F)F)n1` (stereo not drawn): in data set [6], the inhibition at 1 µg/mL was 91.2%.
On to `c1ccc(CN2CC[Si]3(CCCc4ccccc43)CC2)cc1`, for which the Ki in [25] is 300 nM.
